Laboratory results from paper PMC5461367, “Neurologically Potent Molecules from Crataegus oxyacantha; Isolation, Anticholinesterase Inhibition, and Molecular Docking” (Frontiers in Pharmacology, 2017).
Values joined by “and” are separate entries in the source; they are usually repeats but may differ in a detail not shown here. Equal values may be shown once. Read-outs that look alike come from different tables or passages of the source.

Columns and labels:
AChE = AChE (Homo sapiens, UniProt P22303); test: biochemical; details: for inhibition at 62.5 µg/mL: 62.5 μg/ml; for inhibition at 250 µg/mL: 250 μg/ml; for IC50: read-out: AChE IC50 (μM ± SEM)
Protocol: (§1) This yellow compound is UV detectable and is quantified with the passage of time with and without the impact of inhibitor agent. Briefly, from each enzyme solution, 5 μl were added to wells of micro plate and 5 μl DTNB was added to it. The resultant mixture was incubated for 15 min at 30°C in water bath followed by addition of 5 μl substrate solution. […] Control contains all solutions except inhibitor. Change in absorbance was recorded along with reaction time. At the end, Enzymes and enzymes inhibitory activities by control and our test samples were calculated from the rate of absorption with change in time as (V = Δ Abs /Δ t) and Enzyme inhibition as; Percent Enzyme activity = 100 × V/VMax.
(§2) Where, VMax is enzyme activity in the absence of inhibitor agent.

BChE = BChE (Homo sapiens, UniProt P06276); test: biochemical; details: for inhibition at 62.5 µg/mL / inhibition at 250 µg/mL: read-out: % BChE inhibition; for IC50: read-out: BChE IC50 (μM ± SEM)
Protocol: as §1, §2

human brain based AChE = details: ref Harvey, 1995; cited from earlier work
[1] = ratio of IC50 values, footnote a not given
[2] = ratio of IC50 values, footnote b not given

Sequence of BChE (P06276 29-602): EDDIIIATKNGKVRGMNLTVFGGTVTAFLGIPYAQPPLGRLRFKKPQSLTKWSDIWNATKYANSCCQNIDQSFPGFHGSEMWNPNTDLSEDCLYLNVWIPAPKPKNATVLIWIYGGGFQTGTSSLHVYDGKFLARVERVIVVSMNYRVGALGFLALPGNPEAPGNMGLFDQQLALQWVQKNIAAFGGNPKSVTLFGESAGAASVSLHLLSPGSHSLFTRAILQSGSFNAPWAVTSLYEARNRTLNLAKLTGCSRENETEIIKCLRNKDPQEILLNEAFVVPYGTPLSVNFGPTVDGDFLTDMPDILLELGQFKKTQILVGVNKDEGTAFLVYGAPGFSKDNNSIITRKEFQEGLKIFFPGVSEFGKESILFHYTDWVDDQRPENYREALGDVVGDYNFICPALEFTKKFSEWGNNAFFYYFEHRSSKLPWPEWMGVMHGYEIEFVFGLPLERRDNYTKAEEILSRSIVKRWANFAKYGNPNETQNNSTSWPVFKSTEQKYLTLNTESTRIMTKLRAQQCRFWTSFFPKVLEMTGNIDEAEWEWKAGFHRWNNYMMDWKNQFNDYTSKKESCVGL
Sequence of AChE (P22303 32-614): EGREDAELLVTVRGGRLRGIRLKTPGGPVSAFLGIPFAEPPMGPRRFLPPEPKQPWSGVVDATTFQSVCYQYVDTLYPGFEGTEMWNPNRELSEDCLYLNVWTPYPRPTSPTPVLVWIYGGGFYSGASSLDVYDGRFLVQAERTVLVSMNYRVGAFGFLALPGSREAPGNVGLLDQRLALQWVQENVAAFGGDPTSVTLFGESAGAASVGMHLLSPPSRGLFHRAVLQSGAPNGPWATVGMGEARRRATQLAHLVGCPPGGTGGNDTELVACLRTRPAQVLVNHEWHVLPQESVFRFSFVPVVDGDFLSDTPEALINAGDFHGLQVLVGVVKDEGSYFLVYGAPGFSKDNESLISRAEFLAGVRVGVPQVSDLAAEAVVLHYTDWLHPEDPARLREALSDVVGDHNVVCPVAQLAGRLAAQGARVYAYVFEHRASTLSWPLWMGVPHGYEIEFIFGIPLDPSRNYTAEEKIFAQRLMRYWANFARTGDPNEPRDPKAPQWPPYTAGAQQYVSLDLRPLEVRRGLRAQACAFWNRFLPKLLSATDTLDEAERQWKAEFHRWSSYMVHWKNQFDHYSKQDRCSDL

Row | SMILES | inhibition at 62.5 µg/mL (AChE) | inhibition at 250 µg/mL (AChE) | AChE selectivity (AChE; [1]) | IC50 (AChE) | inhibition at 62.5 µg/mL (BChE; 62.5 μg/ml) | inhibition at 250 µg/mL (BChE; 250 μg/ml) | BChE selectivity (BChE; [2]) | IC50 (BChE) | inhibition at 62.5 µg/mL (BChE) | inhibition at 250 µg/mL (BChE) | lower potency against human brain based AChE as compared to RBCs variant (human brain based AChE) | AChE selectivity (AChE) | BChE selectivity (BChE)
1 | O=c1cc(-c2ccccc2)oc2cc(O)cc(O)c12 [Compound 9, 5,7-Dihydroxyflavone] | 81.2 ± 0.23% | 93.67 ± 0.88% | 0.02 | 32.3 ± 1.8 µM | 80.9 ± 1.9% | 85% | 51.27 | 0.63 ± 0.06 µM | – | – | – | – | –
2 | COc1ccc(C(CO)OC)cc1OC (stereo not shown) [Compound 1, 2-(3,4-Dimethoxyphenyl)-2-Methoxyethanol] | 89.7 ± 1.47% | 97.3 ± 1.06% | 0.10 | 23.2 ± 1.02 µM | 84.3 ± 2.19% | 90.7 ± 1.34% | 9.62 | 2.41 ± 0.09 µM | – | – | – | – | –
3 | COc1cc(C(=O)CCO)ccc1O [Compound 2, 3-Hydroxy-1-(4-Hydroxy-3-Methoxyphenyl) Propan-1-One] | 83.74 ± 0.68% | 93.05 ± 0.75% | 0.59 | 25.9 ± 1.35 µM | 87.6 ± 1.06% | 95.76 ± 0.71% | 1.69 | 15.4 ± 1.01 µM | – | – | – | – | –
4 | CCC(CCC(C)C1CCC2C3CC=C4CC(OC5OC(CO)C(O)C(O)C5O)CCC4(C)C3CCC12C)C(C)C [Compound 3, β-Sitosterol-3-O-β-D-Glucopyranoside] | 87.9 ± 0.52% | 95.7 ± 1.6% | 2.26 | 5.22 ± 0.59 µM | 83.03 ± 0.35% | 94.84 ± 0.3% | 0.47 | 11.8 ± 0.93 µM | – | – | – | – | –
5 | C=C(C)[C@@H]1CC[C@]2(C)CC[C@]3(C)[C@H](CC[C@@H]4[C@@]5(C)CC[C@H](O)C(C)(C)[C@@H]5CC[C@]43C)[C@@H]12 [Compound 4, Lupeol] | 77.87 ± 0.26% | 93.73 ± 0.78% | 0.04 | 36.3 ± 1.89 µM | 85.8 ± 1.5% | 91.42 ± 0.43% | 27.71 | 1.31 ± 0.12 µM | – | – | – | – | –
6 | COc1ccc2c3c1O[C@H]1C[C@@H](O)C=C[C@@]31CCN(C)C2 [Galantamine, reference compound] | – | – | – | – | – | – | – | – | 87.8 ± 1.01% | 95.3 ± 1.09% | 10 times | – | –
7 | C=C(C)[C@@H]1CC[C@]2(CO)CC[C@]3(C)[C@H](CC[C@@H]4[C@@]5(C)CC[C@H](O)C(C)(C)[C@@H]5CC[C@]43C)[C@@H]12 [Compound 6, 3β, 28-Dihydroxylup-20(29)-ene] | 84 ± 1.15% | 96.13 ± 0.2% | 1.06 | 24 ± 1.1 µM | 82.5 ± 0.9% | 95.8 ± 2.25% | 0.93 | 25.6 ± 1.25 µM | – | – | – | – | –
8 | CC[C@H](CC[C@@H](C)[C@H]1CC[C@H]2[C@@H]3CC=C4C[C@@H](O)CC[C@]4(C)[C@H]3CC[C@]12C)C(C)C [Compound 5, β-Sitosterol] | 80% | 91.33 ± 0.49% | – | 14.6 ± 0.85 µM | 87.08 ± 0.47% | 92.6 ± 1.12% | – | 0.55 µM and 0.56 µM | – | – | – | 0.04 | 26.62
9 | C=C(C)[C@@H]1CC[C@]2(C(=O)O)CC[C@]3(C)[C@H](CC[C@@H]4[C@@]5(C)CC[C@H](O)C(C)(C)[C@@H]5CC[C@]43C)[C@@H]12 [Compound 7, 3β-Dihydroxylup-20(29)-ene-28-oic Acid] | 77.7 ± 1.25% | 95.7 ± 1.6% | 0.07 | 44.5 ± 1.73 µM | 87.2 ± 1.28% | 94.1 ± 0.6% | 12.78 | 3.48 ± 0.15 µM | – | – | – | – | –
